From PMC9607427, “Novel 7-Chloro-(4-thioalkylquinoline) Derivatives: Synthesis and Antiproliferative Activity through Inducing Apoptosis and DNA/RNA Damage” (Pharmaceuticals, 2022)

Tests used:
[1] = system: CCRF-CEM lymphoblasts; assay: BrU incorporation analysis (RNA synthesis); type: cell-based, human; conditions: 24 h
Procedure: The effect of compounds on cell cycle distribution was determined to gain insights into the mechanism of its antiproliferative activity. […] For example, as compared with control, the percentage of cells in G2/M phases was increased by treatment with 5 × IC50 μM of compounds for 24 h (Table 4). […] As shown in (Table 4), there was a marked increase in the sub-G1 from 2.91 in untreated cells. 5-Bromo-2-deoxyuridine (BrDU) is incorporated into newly synthesized DNA, and 5-bromouridine (BrU) pulse labeling is therefore commonly used as a proliferation marker. Low BrDU and BrU incorporation into the DNA or RNA, respectively, of treated cells with all compounds at 5 × IC50 reflected inhibition of DNA and RNA synthesis, indicating irreversible apoptotic changes. The percentage of […] cells incorporating 5-bromouridine is proportional to the transcriptional activity of CCRF-CEM cells. Cells were cultured and treated as described above. Before harvesting, pulse-labeling with 1 mM BrU for 30 min followed. The cells were then fixed in 1% buffered paraformaldehyde with 0.05% NP-40 at rt for 15 min, and then stored at 4 °C overnight. Before measurement, they were washed with 1% glycine in PBS, washed with PBS again and stained with primary anti-BrDU antibody cross-reacting to BrU (Exbio) for 30 min at rt in the dark. From this point, the experiment was performed exactly as in the previous method.

[2] = system: CCRF-CEM lymphoblasts; assay: Cell cycle and apoptosis analysis (propidium iodide flow cytometry); type: cell-based, human; conditions: 24 h
Procedure: On the other hand, we wanted to find out whether compounds 48–50, 53, 54, 57, 59–63, 65–70, and 72 can stop the cell cycle of cancer cells, as it has been previously reported for chloroquine. For a more detailed description of the biological activity of the studied derivatives, we performed a cell cycle analysis of the most sensitive CCRF-CEM cells after 24 h of incubation with the novel 7-chloro-(4-thioalkylquinoline) derivatives (Table 4).
The effect of compounds on cell cycle distribution was determined to gain insights into the mechanism of its antiproliferative activity. […] For example, as compared with control, the percentage of cells in G2/M phases was increased by treatment with 5 × IC50 μM of compounds for 24 h (Table 4). […] As shown in (Table 4), there was a marked increase in the sub-G1 from 2.91 in untreated cells. 5-Bromo-2-deoxyuridine (BrDU) is incorporated into newly synthesized DNA, and 5-bromouridine (BrU) pulse labeling is therefore commonly used as a proliferation marker. Low BrDU and BrU incorporation into the DNA or RNA, respectively, of treated cells with all compounds at 5 × IC50 reflected inhibition of DNA and RNA synthesis, indicating irreversible apoptotic changes. The percentage of […] cells incorporating 5-bromouridine is proportional to the transcriptional activity of CCRF-CEM cells.
CCRF-CEM cells were seeded at a density of 1 × 10^6 cells per one mL in 6-well plates (TTP) and were cultivated with compounds at concentrations corresponding to 1 × or 5 × IC50 value. Together with the compounds-treated cells, a vehicle-treated sample was harvested at the same time point. After 24 h, the cells were washed with cold phosphate-buffered saline (PBS) and fixed in 70% ethanol added dropwise and stored overnight at −20 °C. Afterward, cells were washed in hypotonic citrate buffer, treated with RNase (50 µg mL^−1), and stained with propidium iodide. Flow cytometry using a 488 nm single beam laser (Becton Dickinson) was used for measurement. The cell cycle was analyzed by the software ModFitLT (Verity), and apoptosis was measured in a logarithmic model expressing the percentage of the particles with propidium content lower than cells in the G0/G1 phase (<G1) of the cell cycle. Half of the sample was used for pH3Ser10 antibody (Sigma) labeling and subsequent flow cytometry analysis of the cells in mitosis.

[3] = 5 × IC50 (second value of cell)

Cc1ccc([N+](=O)[O-])c(C(=O)OCCS(=O)(=O)c2cc[n+]([O-])c3cc(Cl)ccc23)c1 [Compound 70, 2-[(N-Oxide 7-chloroquinolin-4-yl)sulfonyl]ethyl-5-methyl-2-nitrobenzoate]
RNA Synthesis (% positive of cells) ([1]; 1 × IC50 (first value of cell)): 35.28%
RNA Synthesis (% positive of cells) [1, 3]: 2.88%
>G2/M, % of Total Cellular Populations ([2]; 1 × IC50 (first value of cell)): 10.54%
G0/G1, % of Total Cellular Populations ([2]; 1 × IC50 (first value of cell)): 39.54%
G2/M, % of Total Cellular Populations ([2]; 1 × IC50 (first value of cell)): 21.99%
S, % of Total Cellular Populations ([2]; 1 × IC50 (first value of cell)): 38.46%
Sub-G1 Apoptosis, % of Total Cellular Populations ([2]; 1 × IC50 (first value of cell)): 3.21%
>G2/M, % of Total Cellular Populations [2, 3]: 10.33%
G0/G1, % of Total Cellular Populations [2, 3]: 33.44%
G2/M, % of Total Cellular Populations [2, 3]: 23.25%
S, % of Total Cellular Populations [2, 3]: 43.31%
Sub-G1 Apoptosis, % of Total Cellular Populations [2, 3]: 13.75%

O=C(OCCS(=O)(=O)c1cc[n+]([O-])c2cc(Cl)ccc12)c1ccc(C(F)(F)F)cc1 [Compound 72, 2-[(N-Oxide 7-chloroquinolin-4-yl)sulfonyl]ethyl-4-(trifluoromethyl)benzoate]
RNA Synthesis (% positive of cells) ([1]; 1 × IC50 (first value of cell)): 21.64%
RNA Synthesis (% positive of cells) [1, 3]: 2.19%
>G2/M, % of Total Cellular Populations ([2]; 1 × IC50 (first value of cell)): 8.35%
G0/G1, % of Total Cellular Populations ([2]; 1 × IC50 (first value of cell)): 47.22%
G2/M, % of Total Cellular Populations ([2]; 1 × IC50 (first value of cell)): 18.46%
S, % of Total Cellular Populations ([2]; 1 × IC50 (first value of cell)): 34.32%
Sub-G1 Apoptosis, % of Total Cellular Populations ([2]; 1 × IC50 (first value of cell)): 4.05%
>G2/M, % of Total Cellular Populations [2, 3]: 13.12%
G0/G1, % of Total Cellular Populations [2, 3]: 31.36%
G2/M, % of Total Cellular Populations [2, 3]: 21.98%
S, % of Total Cellular Populations [2, 3]: 46.65%
Sub-G1 Apoptosis, % of Total Cellular Populations [2, 3]: 10.12%

COc1ccc(C(=O)OCCS(=O)(=O)c2cc[n+]([O-])c3cc(Cl)ccc23)cc1[N+](=O)[O-] [Compound 69, 2-[(N-Oxide 7-chloroquinolin-4-yl)sulfonyl]ethyl-4-methoxy-3-nitrobenzoate]
RNA Synthesis (% positive of cells) ([1]; 1 × IC50 (first value of cell)): 31.54%
RNA Synthesis (% positive of cells) [1, 3]: 2.64%
>G2/M, % of Total Cellular Populations ([2]; 1 × IC50 (first value of cell)): 8.58%
G0/G1, % of Total Cellular Populations ([2]; 1 × IC50 (first value of cell)): 43.48%
G2/M, % of Total Cellular Populations ([2]; 1 × IC50 (first value of cell)): 20.83%
S, % of Total Cellular Populations ([2]; 1 × IC50 (first value of cell)): 35.7%
Sub-G1 Apoptosis, % of Total Cellular Populations ([2]; 1 × IC50 (first value of cell)): 3.3%
>G2/M, % of Total Cellular Populations [2, 3]: 12.52%
G0/G1, % of Total Cellular Populations [2, 3]: 38.16%
G2/M, % of Total Cellular Populations [2, 3]: 19.27%
S, % of Total Cellular Populations [2, 3]: 42.58%
Sub-G1 Apoptosis, % of Total Cellular Populations [2, 3]: 13.89%

COc1cc(OC)c(C(=O)OCCS(=O)(=O)c2cc[n+]([O-])c3cc(Cl)ccc23)cc1OC [Compound 66, 2-[(N-Oxide 7-chloroquinolin-4-yl)sulfonyl]ethyl-2,4,5-trimethoxybenzoate]
RNA Synthesis (% positive of cells) ([1]; 1 × IC50 (first value of cell)): 29.44%
RNA Synthesis (% positive of cells) [1, 3]: 3.05%
>G2/M, % of Total Cellular Populations ([2]; 1 × IC50 (first value of cell)): 10.42%
G0/G1, % of Total Cellular Populations ([2]; 1 × IC50 (first value of cell)): 39.53%
G2/M, % of Total Cellular Populations ([2]; 1 × IC50 (first value of cell)): 16.6%
Sub-G1 Apoptosis, % of Total Cellular Populations ([2]; 1 × IC50 (first value of cell)): 2.95%
>G2/M, % of Total Cellular Populations [2, 3]: 10.45%
G0/G1, % of Total Cellular Populations [2, 3]: 48.53%
G2/M, % of Total Cellular Populations [2, 3]: 26.56%
S, % of Total Cellular Populations [2, 3]: 24.9%
Sub-G1 Apoptosis, % of Total Cellular Populations [2, 3]: 11.72%

COc1ccccc1C(=O)OCCS(=O)(=O)c1cc[n+]([O-])c2cc(Cl)ccc12 [Compound 68, 2-[(N-Oxide 7-chloroquinolin-4-yl)sulfonyl]ethyl-2-methoxybenzoate]
RNA Synthesis (% positive of cells) ([1]; 1 × IC50 (first value of cell)): 37.4%
RNA Synthesis (% positive of cells) [1, 3]: 3.8%
>G2/M, % of Total Cellular Populations ([2]; 1 × IC50 (first value of cell)): 9.87%
G0/G1, % of Total Cellular Populations ([2]; 1 × IC50 (first value of cell)): 35.73%
G2/M, % of Total Cellular Populations ([2]; 1 × IC50 (first value of cell)): 18.54%
S, % of Total Cellular Populations ([2]; 1 × IC50 (first value of cell)): 45.73%
Sub-G1 Apoptosis, % of Total Cellular Populations ([2]; 1 × IC50 (first value of cell)): 2.71%
>G2/M, % of Total Cellular Populations [2, 3]: 9.65%
G0/G1, % of Total Cellular Populations [2, 3]: 48.5%
G2/M, % of Total Cellular Populations [2, 3]: 19.64%
S, % of Total Cellular Populations [2, 3]: 31.86%
Sub-G1 Apoptosis, % of Total Cellular Populations [2, 3]: 7.16%

COc1ccc(C(=O)OCCS(=O)(=O)c2cc[n+]([O-])c3cc(Cl)ccc23)cc1 [Compound 63, 2-[(N-Oxide 7-chloroquinolin-4-yl)sulfonyl]ethyl-4-methoxybenzoate]
RNA Synthesis (% positive of cells) ([1]; 1 × IC50 (first value of cell)): 35.01%
RNA Synthesis (% positive of cells) [1, 3]: 2.79%
>G2/M, % of Total Cellular Populations ([2]; 1 × IC50 (first value of cell)): 8.56%
G0/G1, % of Total Cellular Populations ([2]; 1 × IC50 (first value of cell)): 42.76%
G2/M, % of Total Cellular Populations ([2]; 1 × IC50 (first value of cell)): 16.81%
S, % of Total Cellular Populations ([2]; 1 × IC50 (first value of cell)): 40.42%
Sub-G1 Apoptosis, % of Total Cellular Populations ([2]; 1 × IC50 (first value of cell)): 3.41%
>G2/M, % of Total Cellular Populations [2, 3]: 11.38%
G0/G1, % of Total Cellular Populations [2, 3]: 34.13%
G2/M, % of Total Cellular Populations [2, 3]: 17.88%
S, % of Total Cellular Populations [2, 3]: 47.99%
Sub-G1 Apoptosis, % of Total Cellular Populations [2, 3]: 12.97%

COc1ccc(OC)c(C(=O)OCCS(=O)(=O)c2cc[n+]([O-])c3cc(Cl)ccc23)c1 [Compound 65, 2-[(N-Oxide 7-chloroquinolin-4-yl)sulfonyl]ethyl-2,5-dimethoxybenzoate]
RNA Synthesis (% positive of cells) ([1]; 1 × IC50 (first value of cell)): 36.04%
RNA Synthesis (% positive of cells) [1, 3]: 24.95%
>G2/M, % of Total Cellular Populations ([2]; 1 × IC50 (first value of cell)): 7.55%
G0/G1, % of Total Cellular Populations ([2]; 1 × IC50 (first value of cell)): 40.82%
G2/M, % of Total Cellular Populations ([2]; 1 × IC50 (first value of cell)): 20.04%
S, % of Total Cellular Populations ([2]; 1 × IC50 (first value of cell)): 39.14%
Sub-G1 Apoptosis, % of Total Cellular Populations ([2]; 1 × IC50 (first value of cell)): 17.77%
>G2/M, % of Total Cellular Populations [2, 3]: 7.13%
G0/G1, % of Total Cellular Populations [2, 3]: 47.21%
G2/M, % of Total Cellular Populations [2, 3]: 19.99%
S, % of Total Cellular Populations [2, 3]: 32.8%
Sub-G1 Apoptosis, % of Total Cellular Populations [2, 3]: 8.67%
